The text below walks through data of patent US10434085B2, “Non-aromatic difluoro analogues of resorcylic acid lactones” (The University of North Carolina at Greensboro, priority 2015, dated 2019).

As usually defined, the IC50 is the concentration that gives 50% inhibition. Higher therefore signals weaker potency in that assay.

The structures appear in SMILES notation.

Chain of TaK1-TaB1 (TAK-1 enzyme) (O43318 other isoform, or with tags, fused parts or gaps): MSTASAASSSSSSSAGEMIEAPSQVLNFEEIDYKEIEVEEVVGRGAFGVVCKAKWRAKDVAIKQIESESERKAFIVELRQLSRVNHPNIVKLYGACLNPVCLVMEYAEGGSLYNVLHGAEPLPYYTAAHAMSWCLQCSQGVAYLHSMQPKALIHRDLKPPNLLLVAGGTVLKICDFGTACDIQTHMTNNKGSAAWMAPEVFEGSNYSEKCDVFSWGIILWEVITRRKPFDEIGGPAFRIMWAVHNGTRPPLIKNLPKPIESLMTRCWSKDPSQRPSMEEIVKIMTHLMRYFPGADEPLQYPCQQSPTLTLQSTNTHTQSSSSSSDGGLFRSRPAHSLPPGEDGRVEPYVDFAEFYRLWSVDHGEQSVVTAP

System in the first series: not given
Assay: not given
The conditions noted are these: cited from earlier work.
Take `COc1cc(O)c2c(c1)/C=C/C[C@H](O)[C@H](O)C(=O)/C=C\C[C@H](C)OC2=O` [(5Z)-7-oxozeaenol]: the stability in plasma entry is “instability in plasma”.

The next series has as its target TaK1-TaB1 (TAK-1 enzyme) (Homo sapiens (Human), UniProt O43318). The experiment in a line: TaK1-TaB1 inhibitor assay (IC50 of RAL analogues against TAK-1 enzyme). The format is biochemical. The conditions noted are these: Table 1, TAK-1 enzyme. From the text:
IV. TaK1-TaB1 (Transforming Growth Factor-β Activated Linase-1/TAK-1 Binding Protein 1) Inhibitor Assays
Regarding `C/C=C\C=C/C(=O)[C@@H](O)[C@@H](O)C/C=C/c1cc(OC)cc(OC)c1C(=O)OC` [Compound 4, Methyl 2-((1E,4S,5S,7Z,9Z)-4,5-dihydroxy-6-oxoundeca-1,7,9-trien-1-yl)-4,6-dimethoxybenzoate], the IC50 was > 30 µM.

Compound `COc1cc2c(c(O)c1Br)C(=O)O[C@@H](C)C/C=C\C(=O)[C@@H](O)[C@@H](O)C/C=C/2` [Compound 6, (3S,5Z,8S,9S,11E)-15-Bromo-8,9,16-trihydroxy-14-methoxy-3-methyl-3,4,9,10-tetrahydro-1H-benzo[c][1]oxacyclotetradecine-1,7(8H)-dione] yielded an IC50 of 2.6 µM.

In turn, `COc1cc(O)c2c(c1Br)/C=C/C[C@H](O)[C@H](O)C(=O)/C=C\C[C@H](C)OC2=O` [Compound 7, (3S,5Z,8S,9S,11E)-13-Bromo-8,9,16-trihydroxy-14-methoxy-3-methyl-3,4,9,10-tetrahydro-1H-benzo[c][1]oxacyclotetradecine-1,7(8H)-dione] displayed an IC50 of 0.36 µM.

`COc1cc(O)c2c(c1)/C=C/C[C@@H]1OC(CC(=O)[C@H]1O)C[C@H](C)OC2=O` [Compound 9, (1^2S,1^3S,8S,E)-1^3,5^3-Dihydroxy-5^5-methoxy-8-methyl-1^3,1^4,1^5,1^6-tetrahydro-1^2H-7-oxa-1(2,6)-pyrana-5(1,2) benzenacyclononaphan-3-ene-1^4,6-dione]: the IC50 is > 30 µM.

`COc1cc(O)c2c(c1)/C=C/C[C@H](O)[C@H](O)C(=O)CCC[C@H](C)OC2=O` [LL-Z164-1, reference compound] yielded an IC50 of 2.6 µM.

For `COc1cc(O)c2c(c1)[C@H]1O[C@@H]1C[C@H](O)[C@H](O)C(=O)CCC[C@H](C)OC2=O` [dihydrohypothemycin, reference compound], the IC50 was > 30 µM.

`COc1cc(O)c2c(c1)/C=C/C[C@H](O)[C@H](O)[C@@H](O)/C=C/C[C@H](C)OC2=O` [zeaenol, reference compound]: the IC50 stood at 10 µM.

Still in this series, the particulars now being: among synthesized analogues.
In the case of `COC1=CC(=O)C2=C(/C=C/C[C@H](O)[C@H](O)C(=O)/C=C\C[C@H](C)OC2=O)C1(F)F` [Compound 5, (3S,5Z,8S,9S,11E)-13,13-Difluoro-8,9-dihydroxy-14-methoxy-3-methyl-3,4,9,10-tetrahydro-1H benzo[c][1]oxacyclotetradecine-1,7,16(8H,13H)-trione], the “activity in TAK-1 assay” value is “relatively active”.

Still in this series, the particulars now being: restated in Table 2 beside docking scores.
As to `C/C=C\C=C/C(=O)[C@@H](O)[C@@H](O)C/C=C/c1cc(OC)cc(OC)c1C(=O)OC` [Compound 4, Methyl 2-((1E,4S,5S,7Z,9Z)-4,5-dihydroxy-6-oxoundeca-1,7,9-trien-1-yl)-4,6-dimethoxybenzoate], the IC50 is > 30 µM.

On to `COc1c(Br)c(O)c2c(c1Br)/C=C/C[C@H](O)[C@H](O)C(=O)/C=C\C[C@H](C)OC2=O` [Compound 8, (3S,5Z,8S,9S,11E)-13,15-Dibromo-8,9,16-trihydroxy-14methoxy-3-methyl-3,4,9,10-tetrahydro-1H-benzo[c][1]oxacyclotetradecine-1,7(8H)-dione], for which the IC50 worked out at 8.9 µM.

For the compound `COc1cc(O)c2c(c1)/C=C/C[C@@H]1OC(C)(C)O[C@@H]1C(=O)/C=C\C[C@H](C)OC2=O` [Compound 10, (3aS,5Z,8S,15E,17aS)-11-Hydroxy-13-methoxy-2,2,8-trimethyl-7,8,17,17a-tetrahydro-4H-benzo[c][1,3]dioxolo[4,5-h][1]oxacyclotetradecine-4,10(3aH)-dione], inhibition was half-maximal at 0.38 µM (IC50).

Take `COc1cc(O)cc2c1C(=O)O[C@@H](C)CCCCC/C=C/C(=O)C2` [Greensporone C, reference compound]: the IC50 was > 30 µM.
